Read-outs that look alike come from different tables or passages of the source.
Experiments:
murine leukemia L1210 = experiment: Cytostatic activity, inhibition of L1210 cell proliferation; assay type: cell-based; details: Mus musculus, L1210, 48 h, read-out: IC50 L1210
Method: (§1) The 50% cytostatic inhibitory concentration (IC50) causing a 50% decrease in cell proliferation was determined against murine leukemia L1210, human lymphocyte CEM, human cervix carcinoma HeLa and immortalized human dermal microvacsular endothelial cells (HMEC-1).
(§2) Murine leukemia (L1210), human T-lymphocyte (CEM), human cervix carcinoma (HeLa) and immortalized human dermal microvascular endothelial cells (HMEC-1) were suspended at 300,000–500,000 cells/mL of culture medium, and 100 μL of a cell suspension was added to 100 μL of an appropriate dilution of the test compounds in 200 μL-wells of 96-well microtiter plates. After incubation at 37 °C for two (L1210), three (CEM) or four (HeLa) days, the cell number was determined using a Coulter counter. The IC50 was defined as the compound concentration required to inhibit cell proliferation by 50%.

[1] = tested on: human cervix carcinoma (HeLa); experiment: Cytostatic activity, inhibition of HeLa cell proliferation; assay type: cell-based; details: 96 h, read-out: IC50 HeLa
Method: as §1, §2

human T-lymphocyte (CEM) = experiment: Cytostatic activity, inhibition of CEM cell proliferation; assay type: cell-based; details: 72 h, read-out: IC50 CEM
Method: as §1, §2

[2] = tested on: immortalized human dermal microvascular endothelial cells (HMEC-1); experiment: Cytostatic activity, inhibition of HMEC-1 cell proliferation; assay type: cell-based; details: inhibition of cell proliferation by 50%
Method: as §1, §2

[3] = tested on: L1210, CEM, HeLa and HMEC-1 cells; experiment: Cytostatic activity against the tested cell lines (L1210, CEM, HeLa, HMEC-1), summarised in text; assay type: cell-based; details: for inhibition of cell proliferation at the highest tested concentration: highest tested concentration 250 μM, L1210, CEM
Method: as §1, §2

[4] = tested on: human cytomegalovirus AD-169 strain; experiment: Antiviral activity against human cytomegalovirus AD-169 strain in HEL cell cultures; assay type: cell-based; details: Human betaherpesvirus 5, AD169
human cytomegalovirus = experiment: Antiviral activity against human cytomegalovirus, strain not given (AD-169 and Davis); assay type: cell-based; details: Human betaherpesvirus 5; range given for four compounds, strain not specified
[5] = tested on: human cytomegalovirus Davis strain; experiment: Antiviral activity against human cytomegalovirus Davis strain in HEL cell cultures; assay type: cell-based; details: Human betaherpesvirus 5
[6] = tested on: human embryonic lung (HEL) cells; details: for Cytotoxicity Cell Morphology MCC: HEL cell cultures, minimum cytotoxic concentration; for cytotoxicity toward uninfected cells: at concentration up to 100 μM
TK- VZV 07-1 strain = experiment: microbe, parasite or virus in culture; assay type: cell-based, varicella-zoster virus; details: for EC50: Human alphaherpesvirus 3, HEL, read-out: Antiviral Activity EC50 TK- VZV Strain; for activity toward TK- VZV strain: result in words
TK+ VZV Oka strain = experiment: microbe, parasite or virus in culture; assay type: cell-based, varicella-zoster virus; details: Human alphaherpesvirus 3, HEL, read-out: Antiviral Activity EC50 TK+ VZV Strain
[7] = tested on: tobacco mosaic virus (TMV); set-up: method as in PMID 23962399; details: ref [30]; cited from earlier work
[8] = tested on: various cancer cell lines; set-up: method as in doi:10.1002/hlca.201200433, PMID 21495659; details: ref [31],[32]; cited from earlier work
Vero cells = tested on: Vero cells; set-up: method as in doi:10.1016/j.phytol.2015.02.007; details: ref [33]; cited from earlier work
influenza A virus = tested on: influenza A virus; set-up: method as in PMID 26017319; details: ref [34]; cited from earlier work

CCOP(=O)(OCC)[C@H]1C[C@H](c2nc3ccccc3c(=O)[nH]2)ON1C (relative stereo) [trans-11a, Diethyl trans-(2-methyl-5-(4-oxo-3,4-dihydroquinazolin-2-yl)isoxazolidin-3-yl)phosphonate]
IC50 (murine leukemia L1210): > 250 µM
IC50 [1]: > 250 µM
IC50 (human T-lymphocyte (CEM)): > 250 µM
IC50 [2]: > 250 µM
inhibition of cell proliferation at the highest tested concentration [3]: did not inhibit cell proliferation

CCOP(=O)(OCC)[C@H]1C[C@H](c2nc3ccccc3c(=O)n2Cc2ccccc2)ON1C (relative stereo) [trans-11b/cis-11b (90:10), Diethyl trans-(5-(3-benzyl-4-oxo-3,4-dihydroquinazolin-2-yl)-2-methylisoxazolidin-3-yl)phosphonate]
IC50 (murine leukemia L1210): 49 ± 23 µM
IC50 [1]: 82 ± 5 µM
EC50 [4]: 44.7 µM
EC50 (human cytomegalovirus): 27 to 45 µM
IC50 (human T-lymphocyte (CEM)): 28 ± 4 µM
IC50 [2]: 83 ± 16 µM
EC50 [5]: > 20 µM

CCOP(=O)(OCC)[C@H]1C[C@H](c2nc3ccccc3c(=O)n2Cc2ccccc2[N+](=O)[O-])ON1C (relative stereo) [trans-11c, Diethyl trans-(2-methyl-5-(3-(2-nitrobenzyl)-4-oxo-3,4-dihydroquinazolin-2-yl)isoxazolidin-3-yl)-phosphonate]
IC50 (murine leukemia L1210): 87 ± 22 µM
IC50 [1]: 97 µM
Cytotoxicity Cell Morphology MCC ([6]; Table 2 (VZV)): >100 μM
EC50 (TK- VZV 07-1 strain): 100 µM
EC50 [4]: > 100 µM
EC50 (human cytomegalovirus): 27 to 45 µM
IC50 (human T-lymphocyte (CEM)): 76 ± 9 µM
IC50 [2]: 92 ± 1 µM
EC50 [5]: 44.7 µM
EC50 (TK+ VZV Oka strain): 46.5 µM

CCOP(=O)(OCC)[C@H]1C[C@H](c2nc3ccccc3c(=O)n2Cc2cccc([N+](=O)[O-])c2)ON1C (relative stereo) [trans-11d/cis-11d (90:10), Diethyl trans-(2-methyl-5-(3-(3-nitrobenzyl)-4-oxo-3,4-dihydroquinazolin-2-yl)isoxazolidin-3-yl)-phosphonate]
IC50 (murine leukemia L1210): 28 ± 11 µM
IC50 [1]: 50 ± 4 µM
IC50 (human T-lymphocyte (CEM)): 21 ± 4 µM
IC50 [2]: 58 µM

CCOP(=O)(OCC)[C@H]1C[C@H](c2nc3ccccc3c(=O)n2Cc2ccc([N+](=O)[O-])cc2)ON1C (relative stereo) [trans-11e/cis-11e (90:10), Diethyl trans-(2-methyl-5-(3-(4-nitrobenzyl)-4-oxo-3,4-dihydroquinazolin-2-yl)isoxazolidin-3-yl)-phosphonate]
IC50 (murine leukemia L1210): 59 ± 32 µM
IC50 [1]: 76 ± 4 µM
Cytotoxicity Cell Morphology MCC ([6]; Table 2 (VZV)): 100 μM
EC50 (TK- VZV 07-1 strain): 42.9 µM
EC50 [4]: 44.7 µM
EC50 (human cytomegalovirus): 27 to 45 µM
IC50 (human T-lymphocyte (CEM)): 34 ± 12 µM
IC50 [2]: 102 ± 3 µM
EC50 [5]: 20 µM
EC50 (TK+ VZV Oka strain): 34.2 µM

CCOP(=O)(OCC)[C@H]1C[C@H](c2nc3ccccc3c(=O)n2Cc2ccccc2F)ON1C (relative stereo) [trans-11f/cis-11f (90:10), Diethyl trans-(5-(3-(2-fluorobenzyl)-4-oxo-3,4-dihydroquinazolin-2-yl)-2-methylisoxazolidin-3-yl)-phosphonate]
IC50 (murine leukemia L1210): 33 ± 7 µM
IC50 [1]: 76 ± 11 µM
Cytotoxicity Cell Morphology MCC ([6]; Table 2 (VZV)): 100 μM
cytotoxicity toward uninfected cells [6]: without exhibiting cytotoxicity
EC50 (TK- VZV 07-1 strain): > 20 µM
activity toward TK- VZV strain (TK- VZV 07-1 strain): no activity
IC50 (human T-lymphocyte (CEM)): 29 ± 13 µM
IC50 [2]: 77 µM
EC50 (TK+ VZV Oka strain): 6.84 µM

CCOP(=O)(OCC)[C@H]1C[C@H](c2nc3ccccc3c(=O)n2Cc2cccc(F)c2)ON1C (relative stereo) [trans-11g, Diethyl trans-(5-(3-(3-fluorobenzyl)-4-oxo-3,4-dihydroquinazolin-2-yl)-2-methylisoxazolidin-3-yl)-phosphonate]
IC50 (murine leukemia L1210): 35 ± 12 µM
IC50 [1]: 62 ± 9 µM
EC50 [4]: > 100 µM
EC50 (human cytomegalovirus): 27 to 45 µM
IC50 (human T-lymphocyte (CEM)): 26 ± 6 µM
IC50 [2]: 74 ± 3 µM
EC50 [5]: 27.6 µM

CCOP(=O)(OCC)[C@H]1C[C@H](c2nc3ccccc3c(=O)n2Cc2ccc(F)cc2)ON1C (relative stereo) [trans-11h, Diethyl trans-(5-(3-(4-fluorobenzyl)-4-oxo-3,4-dihydroquinazolin-2-yl)-2-methylisoxazolidin-3-yl)-phosphonate]
IC50 (murine leukemia L1210): 26 ± 1 µM
IC50 [1]: 58 ± 5 µM
Cytotoxicity Cell Morphology MCC ([6]; Table 2 (VZV)): 100 μM
cytotoxicity toward uninfected cells [6]: without exhibiting cytotoxicity
EC50 (TK- VZV 07-1 strain): > 20 µM
activity toward TK- VZV strain (TK- VZV 07-1 strain): no activity
IC50 (human T-lymphocyte (CEM)): 30 ± 12 µM
IC50 [2]: 78 ± 1 µM
EC50 (TK+ VZV Oka strain): 15.3 µM

CCOP(=O)(OCC)[C@H]1C[C@H](c2nc3ccccc3c(=O)n2Cc2ccc(F)cc2F)ON1C (relative stereo) [trans-11i/cis-11i (97:3), Diethyl trans-(5-(3-(2,4-difluorobenzyl)-4-oxo-3,4-dihydroquinazolin-2-yl)-2-methylisoxazolidin-3-yl)-phosphonate]
IC50 (murine leukemia L1210): 26 ± 2 µM
IC50 [1]: 55 ± 10 µM
Cytotoxicity Cell Morphology MCC ([6]; Table 2 (VZV)): 100 μM
cytotoxicity toward uninfected cells [6]: without exhibiting cytotoxicity
EC50 (TK- VZV 07-1 strain): > 20 µM
activity toward TK- VZV strain (TK- VZV 07-1 strain): no activity
IC50 (human T-lymphocyte (CEM)): 24 ± 8 µM
IC50 [2]: 67 ± 4 µM
EC50 (TK+ VZV Oka strain): 9.44 µM

CCOP(=O)(OCC)[C@H]1C[C@H](c2nc3ccccc3c(=O)n2C)ON1C (relative stereo) [trans-11j, Diethyl trans-(2-methyl-5-(3-methyl-4-oxo-3,4-dihydroquinazolin-2-yl)isoxazolidin-3-yl)phosphonate]
IC50 (murine leukemia L1210): > 250 µM
IC50 [1]: > 250 µM
IC50 (human T-lymphocyte (CEM)): > 250 µM
IC50 [2]: > 250 µM
inhibition of cell proliferation at the highest tested concentration [3]: did not inhibit cell proliferation

CCOP(=O)(OCC)[C@H]1C[C@H](c2nc3ccccc3c(=O)n2CC)ON1C (relative stereo) [trans-11k/cis-11k (97:3), Diethyl trans-(5-(3-ethyl-4-oxo-3,4-dihydroquinazolin-2-yl)-2-methylisoxazolidin-3-yl)phosphonate]
IC50 (murine leukemia L1210): 101 ± 17 µM
IC50 [1]: 97 ± 10 µM
Cytotoxicity Cell Morphology MCC ([6]; Table 2 (VZV)): >100 μM
EC50 (TK- VZV 07-1 strain): 41.6 µM
IC50 (human T-lymphocyte (CEM)): 85 ± 13 µM
IC50 [2]: 86 ± 11 µM
IC50 ([3]; range over L1210, CEM, read-out: IC50 towards the tested cell lines): 85 to 101 µM
EC50 (TK+ VZV Oka strain): 38.8 µM

O=c1[nH]cc(F)c(=O)[nH]1 [5-Fluorouracil, reference compound]
IC50 (murine leukemia L1210; inhibition of cell proliferation by 50%, two days incubation): 0.33 ± 0.17 µM
IC50 ([1]; inhibition of cell proliferation by 50%, four days incubation): 0.54 ± 0.12 µM
IC50 (human T-lymphocyte (CEM); inhibition of cell proliferation by 50%, three days incubation): 18 ± 5 µM

O=c1[nH]c(=O)n([C@H]2C[C@H](O)[C@@H](CO)O2)cc1/C=C/Br [Brivudin, reference compound]
Cytotoxicity Cell Morphology MCC ([6]; Table 2 (VZV)): >100 μM
EC50 (TK- VZV 07-1 strain): 25.6 µM
EC50 (TK+ VZV Oka strain): 0.019 µM

Nc1ccn(C[C@@H](CO)OCP(=O)(O)O)c(=O)n1 [Cidofovir, reference compound]
Cytotoxicity Cell Morphology MCC ([6]; Table 3 (HCMV)): >300 μM
EC50 [4]: 1.49 µM
EC50 [5]: 0.23 µM

O=c1[nH]c(Cc2ccc(O)cc2)nc2ccccc12 [Compound 1, 2-(4-hydroxybenzyl)quinazolin-4(3H)-one]
inhibitory properties on the replication of tobacco mosaic virus (TMV) [7]: strong inhibitory properties
cytotoxicity toward various cancer cell lines [8]: significant cytotoxicity

O=C(c1ccc(O)cc1)c1nc2ccccc2c(=O)[nH]1 [Compound 2]
inhibitory properties on the replication of tobacco mosaic virus (TMV) [7]: only slightly active
melting point: 67 to 68 °C

O=c1[nH]c(-c2c[nH]c3ccccc23)nc2ccccc12 [Compound 3]
cytotoxicity against Vero cells (Vero cells): cytotoxic

O=c1[nH]c(-c2ccncc2)nc2ccccc12 [Compound 4]
activity against influenza A virus (influenza A virus): slight activity

O=c1c2ccccc2nc(-c2ccncc2)n1CCCN1CCOCC1 [Compound 5]
activity against influenza A virus (influenza A virus): slight activity

O=c1c2ccccc2nc(-c2ccncc2)n1CCCn1ccnc1 [Compound 6]
activity against influenza A virus (influenza A virus): slight activity

Nc1nc(O)c2ncn(COC(CO)CO)c2n1 [Ganciclovir, reference compound]
Cytotoxicity Cell Morphology MCC ([6]; Table 3 (HCMV)): >350 μM
EC50 [4]: 10.5 µM
EC50 [5]: 0.63 µM
